Results reported in US9708275B2, “Heterocyclic compounds and methods for their use” (Novartis AG, priority 2012, dated 2017).
pIC50: −log10 of the molar value.

Biological target: AT2 receptor (Homo sapiens (Human), UniProt P50052)
Test: AT2 receptor binding assay ([125I]-CGP42112A, HEK293/AT2 receptor cell membranes)
Settings: displacement of [125I]-CGP42112A, RT 1.5 hrs
Experimental: 1. Trypsin-EDTA (for preparation of 100 mL) • Trypsin 0.25 g • 2% EDTA 2 mL • PBS 98 mL • Dissolve trypsin in 2% EDTA and PBS completely; sterilize the solution by passing through a […] membrane filter; store at 4° C.
2. DMEM medium (for preparation of 1 L) • The powder was dissolved into 950 mL of distilled water with gentle stirring until the solution becomes clear. • Add NaHCO3 1.176 g for DMEM medium. • Adjust pH of medium to 0.2-0.3 below final working pH using 1 M NaOH or 1 M HCl. Add slowly with stirring. • Dilute to 1 liter with ddH2O. • Sterilize the medium immediately by filtration. • Store at 4° C.
3. TE buffer • 20 mM Tris-HCl, pH 7.4, • 5 mM EDTA
4. Binding Assay Buffer • 50 mM Hepes, pH 7.4 • 5 mM MgCl2 • 1 mM CaCl2 • 0.2% BSA
5. Wash Buffer • 50 mM Hepes, pH 7.4 Procedures for HEK293/AT2 Receptor Transient Cell Transfection • Cells were plated into 150 mm dish at 50% density for transient transfection. Cells were ready for transfection after overnight incubation (the confluence reaches around 80%). • 75 μL Lipofectamine™2000 diluted in 6.25 mL OptiMEM I Reduced Serum Medium, was mixed gently, and incubated at room temperature for 5 minutes. 50 μg expression plasmid DNA diluted in 6.25 mL OptiMEM I Reduced Serum Medium without serum was mixed gently. • After the 5 minute incubation, the diluted DNA was combined with the diluted Lipofectamine™2000 (total volume is 12.5 mL). The mixture was mixed gently and incubated for 30 minutes at room temperature to allow the DNA-Lipofectamine™2000 complexes to form. • The 12.5 mL DNA-Lipofectamine™2000 complexes were added into the 150 mm dish and mixed gently by rocking the dish back and forth. • The cells were incubated at 37° C. with 5% CO2 for 48 hours. • Cells were collected and stored frozen at −80° C. Procedures for HEK293/AT2 Receptor Cell Membrane Preparation • Frozen HEK293/AT2 receptor (transient transfected) cells were homogenized in ice cold TE buffer for 10 s. • The homogenate was centrifuged at 25,000 g for 30 minutes. • The pellet was resuspended in ice cold tissue buffer. • Protein concentrations were determined using Bradford assay method with BSA as standard. • The membrane protein was frozen under −80° C. Compound Preparation
Solutions of all compounds were prepared by microplate liquid handling equipment such as Janus or Precision 2000. Compounds, dissolved in DMSO were stored in a Freezer. Compounds were prepared from 30 mM in 100% DMSO.
Step 1: Dose plate preparation (96 well plate)
• Add the 3 μL [30 mM] compound stock to column 1 on the plate. • Add 15 μL of 100% DMSO to column 1. • Add 10.81 μL of 100% DMSO to column 2-12. • Transfer 5 μL from column 1 into column 2 (half log dilution). • Transfer 5 μL from column 2 into column 3 (half log dilution). • Transfer 5 μL from column 3 into column 4 (half log dilution). • Transfer 5 μL from column 4 into column 5 (half log dilution). • Transfer 5 μL from column 5 into column 6 (half log dilution). • Transfer 5 μL from column 6 into column 7 (half log dilution). • Transfer 5 μL from column 7 into column 8 (half log dilution). • Transfer 5 μL from column 8 into column 9 (half log dilution). • Transfer 5 μL from column 9 into column 10 (half log dilution) • Transfer 5 μL from column 10 into column 11 (half log dilution) • Transfer 5 μL from column 11 into column 12 (half log dilution).
All the compounds were diluted using Precision 2000 microplate liquid handling equipment. The top concentration of compound was 5 mM with 100% DMSO.
Step 2: Working plate preparation (96 well plate)
• Compounds were diluted 50-fold with buffer. • 49 μL buffer was added to the well of 96 well plate. • 1 μL compound solution from dose plate was transferred to the corresponding well of working plate. • The top concentration of compound was 100 μM with 2% DMSO. Step 3: Assay plate preparation (96 well plate)
15 μL of compound solution was transferred from each well of working plate to the well of assay plate by Janus. […]

Sequence of AT2 receptor (P50052 whole entry, species assumed): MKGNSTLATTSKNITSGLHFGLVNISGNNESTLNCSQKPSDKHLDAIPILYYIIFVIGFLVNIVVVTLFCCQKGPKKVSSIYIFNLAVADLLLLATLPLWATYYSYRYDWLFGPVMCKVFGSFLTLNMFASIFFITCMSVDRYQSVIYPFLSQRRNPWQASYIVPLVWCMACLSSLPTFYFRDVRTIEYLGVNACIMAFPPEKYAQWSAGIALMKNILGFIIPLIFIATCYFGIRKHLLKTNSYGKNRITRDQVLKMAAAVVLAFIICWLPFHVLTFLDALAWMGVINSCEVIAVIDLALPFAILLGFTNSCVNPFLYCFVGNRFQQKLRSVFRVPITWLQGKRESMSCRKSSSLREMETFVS

**Q.** With `O=C(O)[C@@H]1CN(c2ccccc2)CCN1C(=O)C(c1ccccc1)c1ccccc1` [Compound 4, (S)-1-(2,2-diphenylacetyl)-4-phenylpiperazine-2-carboxylic acid] as the compound, how does the pIC50 read?
**A.** 6.39

**Q.** With `O=C(O)[C@@H]1CN(Cc2ccccc2)CCN1C(=O)C(c1ccccc1)c1ccccc1` [Compound 5, (S)-4-benzyl-1-(2,2-diphenylacetyl)piperazine-2-carboxylic acid] as the compound, how does the pIC50 read?
**A.** 6.42

**Q.** `O=C(O)[C@@H]1CN(c2cc(-c3ccccc3)n(-c3ccccc3)n2)CCN1C(=O)C(c1ccccc1)c1ccccc1` [Compound 6, (S)-4-(1,5-diphenyl-1H-pyrazol-3-yl)-1-(2,2-diphenylacetyl)-piperazine-2-carboxylic acid] was tested. Which pIC50 did it give?
**A.** 5.52

**Q.** `Cc1cc(N2CCN(C(=O)C(c3ccccc3)c3ccccc3)[C@H](C(=O)O)C2)n(-c2ccccc2)n1` [Compound 7, (3)-1-(2,2-diphenylacetyl)-4-(3-methyl-1-phenyl-1H-pyrazol-5-yl)piperazine-2-carboxylic acid] was tested. Which pIC50 did it give?
**A.** 6.81

**Q.** How did the pIC50 turn out when `O=C(O)[C@@H]1CN(CCc2ccccc2)CCN1C(=O)C(c1ccccc1)c1ccccc1` [Compound 8, (S)-1-(2,2-diphenylacetyl)-4-phenethylpiperazine-2-carboxylic acid] was run?
**A.** 5.90

**Q.** How did the pIC50 turn out when `O=C(O)[C@@H]1CN(C/C=C/c2ccccc2)CCN1C(=O)C(c1ccccc1)c1ccccc1` [Compound 9, (S)-4-cinnamyl-1-(2,2-diphenylacetyl)piperazine-2-carboxylic acid] was run?
**A.** 5.39

**Q.** With `O=C(O)[C@@H]1CN(CCCc2ccccc2)CCN1C(=O)C(c1ccccc1)c1ccccc1` [Compound 10, (S)-1-(2,2-diphenylacetyl)-4-(3-phenylpropyl)piperazine-2-carboxylic acid] as the compound, how does the pIC50 read?
**A.** 6.29

**Q.** How did the pIC50 turn out when `Cc1cc(N2CCN(C(=O)C(c3ccccc3)c3ccccc3)[C@H](C(=O)O)C2)n(Cc2ccccc2)n1` [Compound 16, (S)-4-(1-benzyl-3-methyl-1H-pyrazol-5-yl)-1-(2,2-diphenylacetyl)piperazine-2-carboxylic acid] was run?
**A.** 7.40

**Q.** `O=C(O)[C@@H]1CN(c2cc(C(F)(F)F)nn2Cc2ccccc2)CCN1C(=O)C(c1ccccc1)c1ccccc1` [Compound 23, (S)-4-(1-benzyl-3-(-trifluoromethyl)-1H-pyrazol-5-yl)-1-(2,2-diphenylacetyl)piperazine-2-carboxylic acid] was tested. Which pIC50 did it give?
**A.** 7.03

**Q.** With `O=C(O)[C@@H]1CN(CC#Cc2ccccc2)CCN1C(=O)C(c1ccccc1)c1ccccc1` [Compound 24, (S)-1-(2,2-diphenylacetyl)-4-(3-phenylprop-2-yn-1-yl)piperazine-2-carboxylic acid] as the compound, how does the pIC50 read?
**A.** 5.38

**Q.** How did the pIC50 turn out when `O=C(O)[C@@H]1CN(CCC#Cc2ccccc2)CCN1C(=O)C(c1ccccc1)c1ccccc1` [Compound 26, (S)-1-(2,2-diphenylacetyl)-4-(4-phenylbut-3-yn-1-yl)piperazine-2-carboxylic acid] was run?
**A.** 5.88
